Measured values taken from patent US7767665B2, “1,3-benzothiazinone derivatives and use thereof” (Takeda Pharmaceutical Company Limited, priority 2001, dated 2010).

Row | melting point | SMILES
1 | 191.2 to 191.7 °C | O=c1nc(-c2ccc(N3CCCCC3)nc2)sc2ccccc12 [Example 34, 2-[6-(1-Piperidino)-3-pyridyl]-4H-1,3-benzothiazine-4-one]
2 | 232.6 to 234.4 °C | O=c1nc(-c2ccc(N3CCOCC3)nc2)sc2ccccc12 [Example 35, 2-[6-(4-Morpholino)-3-pyridyl]-4H-1,3-benzothiazine-4-one]
3 | 221.5 to 222 °C | O=c1nc(-c2ccc(Sc3ccc(Cl)cc3)nc2)sc2ccccc12 [Example 36, 2-{6-[(4-Chlorophenyl)thio]-3-pyridyl}-4H-1,3-benzothiazine-4-one]
4 | 256.5 °C (dec.) | C[S+]([O-])c1cccc(-c2nc(=O)c3ccccc3s2)n1 (centres unmarked) [Example 44, 2-(6-Methylsulfinyl-2-pyridyl)-4H-1,3-benzothiazine-4-one]
5 | 238.2 to 239.5 °C (dec.) | CS(=O)(=O)c1cccc(-c2nc(=O)c3ccccc3s2)n1 [Example 45, 2-(6-Methylsulfonyl-2-pyridyl)-4H-1,3-benzothiazine-4-one]
6 | 176.9 to 178.4 °C | Cc1ccc(Sc2cccc(-c3nc(=O)c4ccccc4s3)n2)cc1 [Example 46, 2-{6-[(4-methylphenyl)thio]-2-pyridyl}-4H-1,3-benzothiazine-4-one]
7 | 124.5 to 125.1 °C | CCCSc1cccc(-c2nc(=O)c3ccccc3s2)n1 [Example 59, 2-(6-Propylthio-2-pyridyl)-4H-1,3-benzothiazine-4-one]
8 | 116 to 116.5 °C | O=c1nc(-c2ccnc(OCc3ccccc3)c2)sc2ccccc12 [Example 69, 2-(2-Benzyloxy-4-pyridyl)-4H-1,3-benzothiazine-4-one]
9 | 145.9 to 146.6 °C | CN(Cc1ccccc1)c1cc(-c2nc(=O)c3ccccc3s2)ccn1 [Example 71, 2-[2-(N-Benzyl-N-methylamino)-4-pyridyl]-4H-1,3-benzothiazine-4-one]
10 | 133.8 to 134.6 °C | CCCCCCNc1cc(-c2nc(=O)c3ccccc3s2)ccn1 [Example 72, 2-[2-(Hexylamino)-4-pyridyl]-4H-1,3-benzothiazine-4-one]
11 | 162.7 to 163 °C | O=c1nc(-c2ccnc(-c3ccccc3)c2)sc2ccccc12 [Example 75, 2-(2-Phenyl-4-pyridyl)-4H-1,3-benzothiazine-4-one]
12 | 160.4 to 161.1 °C | O=c1nc(-c2ccnc(-c3cccs3)c2)sc2ccccc12 [Example 75, 2-[2-(2-Thienyl)-4-pyridyl]-4H-1,3-benzothiazine-4-one]
13 | 165.8 to 166 °C | CC(C)(C)OC(=O)CCc1cccc(-c2nc(=O)c3ccccc3s2)n1 [Example 78, tert-Butyl 3-[6-(4-oxo-4H-1,3-benzothiazin-2-yl)-2-pyridyl]propanoate]
14 | 313.3 to 315 °C | O=c1nc(-c2ccccn2)sc2ccc(O)cc12 [Example 84, 6-Hydroxy-2-(2-pyridyl)-4H-1,3-benzothiazine-4-one]
15 | 157.2 to 158.5 °C | COC(CCCNc1ccc(-c2nc(=O)c3ccccc3s2)cn1)OC [Example 86, 2-[6-[(4,4-Dimethoxybutyl)amino]-3-pyridyl]-4H-1,3-benzothiazine-4-one]
16 | 140.5 to 140.6 °C | CSc1ccc(Oc2ccc(-c3nc(=O)c4ccccc4s3)cn2)cc1 [Example 89]
17 | 172.6 to 172.8 °C | Cc1ccc(Sc2ccc(-c3nc(=O)c4ccccc4s3)cn2)cc1 [Example 90, 2-[2-(4-Methyl)phenylthio-3-pyridyl]-4H-1,3-benzothiazine-4-one]
18 | 152.3 to 156.2 °C | CCOc1ccc(-c2nc(=O)c3ccccc3s2)cn1 [Example 91, 2-(6-Ethoxy-3-pyridyl)-4H-1,3-benzothiazine-4-one]
19 | 92.8 to 93.1 °C | CC(C)CCSc1ccc(-c2nc(=O)c3ccccc3s2)cn1 [Example 92]
20 | 109.7 to 110.4 °C | CC(C)Oc1ccc(-c2nc(=O)c3ccccc3s2)cn1 [Example 93, 2-[6-Isopropoxy-3-pyridyl]-4H-1,3-benzothiazine-4-one]
21 | 93.6 to 94.9 °C | CCOCCOc1ccc(-c2nc(=O)c3ccccc3s2)cn1 [Example 94, 2-[6-(2-Ethoxyethoxy)-3-pyridyl]-4H-1,3-benzothiazine-4-one]
22 | 212.4 to 212.6 °C | O=C1c2ccccc2C(=O)N1CCOc1ccc(-c2nc(=O)c3ccccc3s2)cn1 [Example 95]
23 | 73.6 to 73.9 °C | CCOC(=O)CCCCCOc1ccc(-c2nc(=O)c3ccccc3s2)cn1 [Example 96, Ethyl 6-{[5-(4-oxo-4H-1,3-benzothiazin-2-yl)-2-pyridyl]oxy}hexanoate]
24 | 195.6 to 196.3 °C | CN(C(=O)OC(C)(C)C)c1cccc(-c2nc(=O)c3ccccc3s2)n1 [Example 108, tert-Butyl methyl[6-(4-oxo-4H-1,3-benzothiazin-2-yl)-2-pyridyl]carbamate]
25 | 206.9 to 208 °C | CNc1cccc(-c2nc(=O)c3ccccc3s2)n1 [Example 109, 2-(6-Methylamino-2-pyridyl)-4H-1,3-benzothiazine-4-one]
26 | 218.3 to 220.3 °C | CC(=O)N(C)c1cccc(-c2nc(=O)c3ccccc3s2)n1 [Example 110, N-Methyl-N-[6-(4-oxo-4H-1,3-benzothiazin-2-yl)-2-pyridyl]acetamide]
27 | 200.6 to 201.2 °C | CCC(=O)N(C)c1cccc(-c2nc(=O)c3ccccc3s2)n1 [Example 114, N-Methyl-N-[6-(4-oxo-4H-1,3-benzothiazin-2-yl)-2-pyridyl]propanamide]
28 | 105 to 105.1 °C | CCCCCSc1cccc(-c2nc(=O)c3ccccc3s2)n1 [Example 129, 2-[6-(Pentylthio)-2-pyridyl]-4H-1,3-benzothiazine-4-one]
29 | 103.4 to 105.1 °C | CC(C)CCSc1cccc(-c2nc(=O)c3ccccc3s2)n1 [Example 130, 2-[6-(Isopentylthio)-2-pyridyl]-4H-1,3-benzothiazine-4-one]
30 | 169.8 to 170.3 °C | Cc1cccc(-c2nc(=O)c3ccccc3s2)n1 [Example 136, 2-(6-Methyl-2-pyridyl)-4H-1,3-benzothiazine-4-one]

Second part, the molecule before the results:

Row | SMILES | melting point
31 | O=c1nc(-c2cccc(Oc3ccccc3)n2)sc2ccccc12 [Example 41, 2-(6-Phenoxy-2-pyridyl)-4H-1,3-benzothiazine-4-one] | 160.8 to 161.3 °C
32 | O=c1nc(-c2cccc(N3CCCCC3)n2)sc2ccccc12 [Example 42, 2-[6-(1-Piperidyl)-2-pyridyl]-4H-1,3-benzothiazine-4-one] | 178.7 °C (dec.)
33 | O=c1nc(-c2cccc(N3CCN(c4ccccc4)CC3)n2)sc2ccccc12 [Example 62, 2-[6-(4-Phenyl-1-piperazinyl)-2-pyridyl]-4H-1,3-benzothiazine-4-one] | 245.8 °C (dec.)
34 | CC(C)(C)OC(=O)CCOCCCc1cccc(-c2nc(=O)c3ccccc3s2)n1 [Example 66, tert-Butyl 3-{3-[6-(4-oxo-4H-1,3-benzothiazin-2-yl)-2-pyridyl]propoxy}propanoate] | 71 to 71.9 °C
35 | O=c1nc(-c2ccnc(N3CCN(c4ccc(F)cc4)CC3)c2)sc2ccccc12 [Example 74, 2-{2-[4-(4-Fluorophenyl)-1-piperazinyl]-4-pyridyl}-4H-1,3-benzothiazine-4-one] | 233 to 233.6 °C
36 | Cc1cc(C)c2sc(-c3cccc(CCCOCCC(=O)OC(C)(C)C)n3)nc(=O)c2c1 [Example 87] | 105.3 to 107.3 °C
37 | Cc1cc(C)c2sc(-c3cccc(CCCOCCC(=O)O)n3)nc(=O)c2c1 [Example 88] | 156.5 to 157.1 °C
38 | CC(C)(C)OC(=O)CCOCCCc1ccnc(-c2nc(=O)c3ccccc3s2)c1 [Example 101, tert-Butyl 3-[3-[2-(4-oxo-4H-1,3-benzothiazin-2-yl)-4-pyridyl]propoxy]propanoate] | 81.1 to 82.2 °C
39 | CCCCOc1ccc2sc(-c3ccccn3)nc(=O)c2c1 [Example 116, 6-Butoxy-2-(2-pyridyl)-4H-1,3-benzothiazine-4-one] | 160.9 to 161.8 °C
40 | CC(C)COc1ccc2sc(-c3ccccn3)nc(=O)c2c1 [Example 117, 6-Isobutoxy-2-(2-pyridyl)-4H-1,3-benzothiazine-4-one] | 135.5 to 136.5 °C
41 | O=c1nc(-c2ccccn2)sc2ccc(OCCCO)cc12 [Example 118, 6-(3-Hydroxypropoxy)-2-(2-pyridyl)-4H-1,3-benzothiazine-4-one] | 196.6 to 197.7 °C
42 | O=c1nc(-c2ccccn2)sc2ccc(OCCCCCCO)cc12 [Example 119, 6-(6-Hydroxyhexyloxy)-2-(2-pyridyl)-4H-1,3-benzothiazine-4-one] | 135.6 to 137 °C
43 | O=c1nc(-c2ccccn2)sc2ccc(OCCCc3ccccc3)cc12 [Example 120, 6-(3-Phenylpropoxy)-2-(2-pyridyl)-4H-1,3-benzothiazine-4-one] | 170 to 170.3 °C
44 | O=c1nc(-c2ccccn2)sc2ccc(OCc3ccccc3)cc12 [Example 121, 6-(Benzyloxy)-2-(2-pyridyl)-4H-1,3-benzothiazine-4-one] | 198 to 198.8 °C
45 | CC(C)(C)OC(=O)COc1ccc2sc(-c3ccccn3)nc(=O)c2c1 [Example 122, tert-Butyl 2-[[4-oxo-2-(2-pyridyl)-4H-1,3-benzothiazin-6-yl]oxy]acetate] | 183 to 184.1 °C
46 | O=C(O)COc1ccc2sc(-c3ccccn3)nc(=O)c2c1 [Example 123, 2-[[4-Oxo-2-(2-pyridyl)-4H-1,3-benzothiazin-6-yl]oxy]acetic acid] | 250 °C (dec.)
47 | CC(C)(C)OC(=O)CCCCCOc1ccc2sc(-c3ccccn3)nc(=O)c2c1 [Example 124, tert-Butyl 6-[[4-oxo-2-(2-pyridyl)-4H-1,3-benzothiazin-6-yl]oxy]hexanoate] | 101.2 to 102.4 °C
48 | O=C(O)CCCCCOc1ccc2sc(-c3ccccn3)nc(=O)c2c1 [Example 125, 6-[[4-Oxo-2-(2-pyridyl)-4H-1,3-benzothiazin-6-yl]oxy]hexanoic acid] | 205.4 to 206.3 °C
49 | O=c1nc(-c2cccc(SCCc3ccccc3)n2)sc2ccccc12 [Example 131, 2-[6-(2-Phenethylthio)-2-pyridyl]-4H-1,3-benzothiazine-4-one] | 167.1 to 168.4 °C
50 | O=C(O)c1ccc2c(=O)nc(-c3ccccn3)sc2c1 [Example 135, 4-Oxo-2-(2-pyridyl)-4H-1,3-benzothiazine-7-carboxylic acid] | 294.7 to 295.1 °C
